Laboratory results taken from US7763611B2, “Aroylsemicarbazide derivatives against thromboembolic diseases” (Merck Patent GmbH, priority 2003, dated 2010).

Columns and labels:
[1] = target: FXa (Homo sapiens, UniProt P00742); assay: Factor Xa inhibition (FXa-IC50); type: biochemical
Text: The inhibition of factor Xa by the compounds according to the invention and the measurement of the anticoagulant and antithrombotic activity can be determined by conventional in-vitro or in-vivo methods. A suitable method is described, for example, by J. Hauptmann et al. in Thrombosis and Haemostasis 1990, 63, 220-223.
The inhibition of factor Xa can be measured, for example by the method of T. Hara et al. in Thromb. Haemostas. 1994, 71, 314-319.

[2] = target: TF/FVIIa (Homo sapiens, UniProt P08709); assay: TF/FVIIa inhibition (TF/FVIIa-IC50); type: biochemical
Text: The inhibition of factor VIIa by the compounds according to the invention and the measurement of the anticoagulant and antithrombotic activity can be determined by conventional in-vitro or in-vivo methods. A conventional method for the measurement of the inhibition of factor VIIa is described, for example, by H. F. Ronning et al. in Thrombosis Research 1996, 84, 73-81.

Chain of FXa (P00742 235-488 limits assumed): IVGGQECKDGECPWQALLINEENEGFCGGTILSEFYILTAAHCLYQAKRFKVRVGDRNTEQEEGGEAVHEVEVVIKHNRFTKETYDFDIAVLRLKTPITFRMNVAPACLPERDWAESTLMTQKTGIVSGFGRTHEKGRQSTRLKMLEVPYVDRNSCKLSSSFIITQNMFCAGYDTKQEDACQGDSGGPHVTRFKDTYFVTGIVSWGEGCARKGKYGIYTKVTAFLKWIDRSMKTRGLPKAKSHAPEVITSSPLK
Chain of FXa (P00742 41-179 limits assumed): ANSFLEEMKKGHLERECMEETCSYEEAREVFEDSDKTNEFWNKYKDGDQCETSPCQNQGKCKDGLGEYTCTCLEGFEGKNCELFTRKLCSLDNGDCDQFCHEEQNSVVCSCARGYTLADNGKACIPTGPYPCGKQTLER
Chain of TF/FVIIa (P08709 213-466 limits assumed): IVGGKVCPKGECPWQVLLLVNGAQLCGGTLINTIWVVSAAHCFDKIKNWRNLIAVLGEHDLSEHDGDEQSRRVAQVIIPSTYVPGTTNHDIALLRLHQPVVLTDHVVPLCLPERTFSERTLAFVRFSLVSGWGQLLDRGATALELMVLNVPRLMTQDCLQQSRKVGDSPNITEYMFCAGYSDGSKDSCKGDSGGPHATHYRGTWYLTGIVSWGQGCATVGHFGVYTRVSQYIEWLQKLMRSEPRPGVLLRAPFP
Chain of TF/FVIIa (P08709 61-212 limits assumed): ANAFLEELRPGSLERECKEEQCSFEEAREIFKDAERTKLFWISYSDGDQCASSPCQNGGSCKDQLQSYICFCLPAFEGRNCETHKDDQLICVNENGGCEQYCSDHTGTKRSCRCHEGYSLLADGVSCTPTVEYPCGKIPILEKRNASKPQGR
Chain of TF/FVIIa (P13726 33-295 partner): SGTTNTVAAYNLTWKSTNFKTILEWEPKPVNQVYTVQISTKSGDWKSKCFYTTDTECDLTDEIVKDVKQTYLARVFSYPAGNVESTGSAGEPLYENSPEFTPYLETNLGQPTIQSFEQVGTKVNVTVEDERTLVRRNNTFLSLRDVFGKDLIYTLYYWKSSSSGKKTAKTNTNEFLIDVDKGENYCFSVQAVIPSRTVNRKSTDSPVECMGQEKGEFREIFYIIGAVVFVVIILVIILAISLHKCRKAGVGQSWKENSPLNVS

| IC50 [1] [nM] | melting point [°C] | IC50 [2] [nM] | Compound |
| --- | --- | --- | --- |
| 390 | 101 to 102 | 830 | CCCN(NC(=O)c1ccc(Cl)s1)C(=O)Nc1ccc(N2CCOCC2=O)cc1 [Compound A1, 1-(5-chlorothien-2-ylcarbonyl)-4-[4-(3-oxomorpholin-4-yl)phenyl]-2-propylsemicarbazide] |
| 87 | – | 180 | Cc1cc(NC(=O)N(Cc2ccccc2)NC(=O)c2sccc2Cl)ccc1N1CCOCC1=O [Compound A3, 1-(3-chlorothien-2-ylcarbonyl)4-[3-methyl4-(3-oxomorpholin4-yl)-phenyl]-2-benzylsemicarbazide] |
| 570 | – | 1000 | C#CCN(NC(=O)c1ccc(Cl)s1)C(=O)Nc1ccc(N2CCOCC2=O)c(C)c1 [Compound A2, 1-(5-chlorothien-2-ylcarbonyl)4-[3-methyl-4-(3-oxomorpholin4-yl)-phenyl]-2-(prop-2-ynyl)semicarbazide] |
